# Data taken from patent publication US8304452B2, “Radical scavenger and active oxygen eliminating agent” (InBiotex Inc., priority 2005, dated 2012).
# Key:
# [1] = DPPH-scavenging action (Example 2); type: biochemical; details: for Radical-scavenging ratio (%): DPPH, ambient temperature, 5 minutes, mean, n=2
# Experimental: DPPH (1,1-diphenyl-2-picrylhydrazyl) is one of nitrogen radicals and is a very stable radical, which is commercially available as a black-purple crystal (Wako Pure Chemical, Co., Ltd., etc.). N-β-Alanyl-5-S-glutathionyl-3,4-dihydroxyphenylalanine (5-S-GAD) (see Table 2) or Carnosine (under trade name) (see Table 3) was added to an ethanol solution of […] DPPH radical, for reaction at ambient temperature for 5 minutes (see the following reaction scheme). Instead of the test reagent, distilled water was added to the ethanol solution, which was used as a background. The DPPH absorbance at 517 nm was assayed, to calculate the scavenging ratio (%) of the DPPH radical according to the following equation. The scavenging ratio was defined as radical scavenger activity (mean, n=2; see Table 2, Table 3 and FIG. 2).
# Radical-scavenging ratio (%)=[assay value of background (mean)−assay value of solution at each concentration]/background assay value (mean)]×100
# [2] = DPPH-scavenging activity versus N-acetyl-L-carnosine (Example 6); type: biochemical; details: 60 μM DPPH, 5 minutes; FIG. 6
# Experimental: 5-S-GAD or N-acetyl-L-carnosine was added to an ethanol solution of 60 μM DPPH for reaction at ambient temperature for 5 minutes. Subsequently, the concentration of the DPPH radical was measured via the absorbance at 517 nm. The DPPH radical concentration in a reaction solution to which distilled water instead of the test substance solution was added, was used as a control. In the same manner as in Example 2, the scavenging ratio (%) of the DPPH radical was calculated and defined as the radical-scavenging activity (see FIG. 6).
# [3] = test system: VEGF-triggered vascularization; assay: Vascularization-suppressing action, VEGF matrigel plug (Example 9); type: in vivo, C57BL/6 mice; details: 40 μM in matrigel plug containing 100 ng/mL VEGF; 6 days later; P<0.05; FIG. 9
# Experimental: 5-S-GAD was added to a matrigelplug containing 100 ng/mL VEGF, for injections into female C57BL/6 mice. 6 days later, the matrigel plug was scissored out, to assay the hemoglobin content in the matrigel. The results are shown in mean±standard deviation. Testing were done by the Student's t test (*P<0.05).
structure (smiles),measurement,setting,value
"NCCC(=O)N[C@@H](Cc1cc(O)c(O)c(SC[C@H](NC(=O)CC[C@H](N)C(=O)O)C(=O)NCC(=O)O)c1)C(=O)O [5-S-GAD, N-β-alanyl-5-S-glutathionyl-3,4-dihydroxyphenylalanine]",Radical-scavenging ratio (%),[1]; 1 μM added,3.918%
same,Radical-scavenging ratio (%),[1]; 3 μM added,13.891%
same,Radical-scavenging ratio (%),[1]; 10 μM added,73.762%
same,Radical-scavenging ratio (%),[1]; 30 μM added,93.487%
same,action for scavenging the DPPH radical (in words),"[1]; summary of Table 2, Table 3 and FIG. 2",strong actions for scavenging the DPPH radical
same,DPPH radical-scavenging action compared with N-acetyl-L-carnosine (in words),[2],excellent DPPH radical-scavenging action compared with N-acetyl-L-carnosine
same,suppression of VEGF-triggered vascularization (hemoglobin content in the matrigel),[3],suppressed significantly
